Assay results from PubChem BioAssay (NCI).
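Cells were grown in 96-well plates and exposed to each compound for 48 hours at five concentrations; endpoints were interpolated linearly between bracketing concentrations, or set to the highest concentration if not reached. GI50 is the concentration that inhibits growth by half. TGI denotes the concentration required for complete inhibition of growth.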

Key:
Experiment in all cases: NCI-60 cell line screen, 48 h
CCRF-CEM leukemia = system: CCRF-CEM leukemia
HCT-116 colon = system: HCT-116 colon
HCC-2998 colon = system: HCC-2998 colon
M14 melanoma = system: M14 melanoma
HT29 colon = system: HT29 colon
SK-MEL-5 melanoma = system: SK-MEL-5 melanoma
SK-MEL-2 melanoma = system: SK-MEL-2 melanoma
786-0 renal = system: 786-0 renal
SF-295 CNS = system: SF-295 CNS
MOLT-4 leukemia = system: MOLT-4 leukemia
SF-539 CNS = system: SF-539 CNS
MCF7 breast = system: MCF7 breast
NCI-H23 lung = system: NCI-H23 lung
SNB-19 CNS = system: SNB-19 CNS
A498 renal = system: A498 renal
MDA-MB-435 = system: MDA-MB-435
TK-10 renal = system: TK-10 renal
MDA-MB-231 breast = system: MDA-MB-231 breast
RPMI-8226 leukemia = system: RPMI-8226 leukemia
SW-620 colon = system: SW-620 colon
SNB-75 CNS = system: SNB-75 CNS
SR leukemia = system: SR leukemia
T-47D breast = system: T-47D breast
A549 NSCLC = system: A549 NSCLC
DU-145 prostate = system: DU-145 prostate
OVCAR-3 ovarian = system: OVCAR-3 ovarian
NCI-H460 lung = system: NCI-H460 lung
BT-549 breast = system: BT-549 breast
KM12 colon = system: KM12 colon
NCI-H226 lung = system: NCI-H226 lung
OVCAR-4 ovarian = system: OVCAR-4 ovarian
HOP-92 NSCLC = system: HOP-92 NSCLC
EKVX NSCLC = system: EKVX NSCLC
RXF 393 renal = system: RXF 393 renal
UACC-257 melanoma = system: UACC-257 melanoma
HCT-15 colon = system: HCT-15 colon
SK-OV-3 ovarian = system: SK-OV-3 ovarian
SF-268 CNS = system: SF-268 CNS
SN12C renal = system: SN12C renal
IGROV1 ovarian = system: IGROV1 ovarian
NCI-H522 lung = system: NCI-H522 lung
K-562 leukemia = system: K-562 leukemia
LOX IMVI melanoma = system: LOX IMVI melanoma
NCI/ADR-RES ovarian = system: NCI/ADR-RES ovarian
HOP-62 NSCLC = system: HOP-62 NSCLC
UO-31 renal = system: UO-31 renal
OVCAR-8 ovarian = system: OVCAR-8 ovarian
MALME-3M melanoma = system: MALME-3M melanoma
SK-MEL-28 melanoma = system: SK-MEL-28 melanoma
CAKI-1 renal = system: CAKI-1 renal
OVCAR-5 ovarian = system: OVCAR-5 ovarian
U251 CNS = system: U251 CNS
HL-60(TB) leukemia = system: HL-60(TB) leukemia
UACC-62 melanoma = system: UACC-62 melanoma
HS 578T breast = system: HS 578T breast
COLO 205 colon = system: COLO 205 colon
ACHN renal = system: ACHN renal
PC-3 prostate = system: PC-3 prostate

Question: How did the GI50 (CCRF-CEM leukemia) turn out when O=C1NC(=O)/C(=C/c2c(Cl)nc3sccn23)S1 was run?
Answer: 71.2 µM

Question: And the TGI (CCRF-CEM leukemia)?
Answer: > 100 µM

Question: What about the GI50 (HCT-116 colon) of the same compound?
Answer: 80.4 µM

Question: And the TGI (HCT-116 colon)?
Answer: > 100 µM

Question: And the GI50 (HCC-2998 colon)?
Answer: > 100 µM

Question: And the TGI (HCC-2998 colon)?
Answer: > 100 µM

Question: And the GI50 (M14 melanoma)?
Answer: 66.4 µM

Question: And the TGI (M14 melanoma)?
Answer: > 100 µM

Question: And the GI50 (HT29 colon)?
Answer: > 100 µM

Question: And the TGI (HT29 colon)?
Answer: > 100 µM

Question: What about the GI50 (SK-MEL-5 melanoma) of the same compound?
Answer: 35.5 µM

Question: What about the TGI (SK-MEL-5 melanoma) of the same compound?
Answer: > 100 µM

Question: And the GI50 (SK-MEL-2 melanoma)?
Answer: > 100 µM

Question: And the TGI (SK-MEL-2 melanoma)?
Answer: > 100 µM

Question: What about the GI50 (786-0 renal) of the same compound?
Answer: > 85.8 µM

Question: And the TGI (786-0 renal)?
Answer: > 100 µM

Question: And the GI50 (SF-295 CNS)?
Answer: 64.4 µM

Question: What about the TGI (SF-295 CNS) of the same compound?
Answer: > 100 µM

Question: And the GI50 (MOLT-4 leukemia)?
Answer: > 100 µM

Question: What about the TGI (MOLT-4 leukemia) of the same compound?
Answer: > 100 µM

Question: And the GI50 (SF-539 CNS)?
Answer: > 31.8 µM

Question: And the TGI (SF-539 CNS)?
Answer: > 83.8 µM

Question: What about the GI50 (MCF7 breast) of the same compound?
Answer: > 65.4 µM

Question: And the TGI (MCF7 breast)?
Answer: > 100 µM

Question: What about the GI50 (NCI-H23 lung) of the same compound?
Answer: > 56.4 µM

Question: And the TGI (NCI-H23 lung)?
Answer: > 100 µM

Question: And the GI50 (SNB-19 CNS)?
Answer: > 79.1 µM

Question: And the TGI (SNB-19 CNS)?
Answer: > 100 µM

Question: And the GI50 (A498 renal)?
Answer: 1.01 µM

Question: What about the TGI (A498 renal) of the same compound?
Answer: 46.1 µM

Question: What about the GI50 (MDA-MB-435) of the same compound?
Answer: 97.3 µM

Question: And the TGI (MDA-MB-435)?
Answer: > 100 µM

Question: What about the GI50 (TK-10 renal) of the same compound?
Answer: > 57.6 µM

Question: And the TGI (TK-10 renal)?
Answer: > 100 µM

Question: What about the GI50 (MDA-MB-231 breast) of the same compound?
Answer: 28.7 µM

Question: And the TGI (MDA-MB-231 breast)?
Answer: > 100 µM

Question: What about the GI50 (RPMI-8226 leukemia) of the same compound?
Answer: 36.1 µM

Question: What about the TGI (RPMI-8226 leukemia) of the same compound?
Answer: > 100 µM

Question: What about the GI50 (SW-620 colon) of the same compound?
Answer: > 100 µM

Question: And the TGI (SW-620 colon)?
Answer: > 100 µM

Question: And the GI50 (SNB-75 CNS)?
Answer: > 100 µM

Question: What about the TGI (SNB-75 CNS) of the same compound?
Answer: > 100 µM

Question: And the GI50 (SR leukemia)?
Answer: 37.6 µM

Question: And the TGI (SR leukemia)?
Answer: > 100 µM

Question: What about the GI50 (T-47D breast) of the same compound?
Answer: 31.3 µM

Question: What about the TGI (T-47D breast) of the same compound?
Answer: > 75.8 µM

Question: What about the GI50 (A549 NSCLC) of the same compound?
Answer: > 100 µM

Question: And the TGI (A549 NSCLC)?
Answer: > 100 µM

Question: And the GI50 (DU-145 prostate)?
Answer: > 100 µM

Question: And the TGI (DU-145 prostate)?
Answer: > 100 µM

Question: What about the GI50 (OVCAR-3 ovarian) of the same compound?
Answer: > 70.9 µM

Question: What about the TGI (OVCAR-3 ovarian) of the same compound?
Answer: > 100 µM

Question: And the GI50 (NCI-H460 lung)?
Answer: > 75.8 µM

Question: What about the TGI (NCI-H460 lung) of the same compound?
Answer: > 100 µM

Question: What about the GI50 (BT-549 breast) of the same compound?
Answer: > 84.5 µM

Question: What about the TGI (BT-549 breast) of the same compound?
Answer: > 100 µM

Question: What about the GI50 (KM12 colon) of the same compound?
Answer: > 100 µM

Question: What about the TGI (KM12 colon) of the same compound?
Answer: > 100 µM

Question: What about the GI50 (NCI-H226 lung) of the same compound?
Answer: 14.2 µM

Question: What about the TGI (NCI-H226 lung) of the same compound?
Answer: > 100 µM

Question: And the GI50 (OVCAR-4 ovarian)?
Answer: > 100 µM

Question: And the TGI (OVCAR-4 ovarian)?
Answer: > 100 µM

Question: What about the GI50 (HOP-92 NSCLC) of the same compound?
Answer: 20.9 µM

Question: What about the TGI (HOP-92 NSCLC) of the same compound?
Answer: > 100 µM

Question: And the GI50 (EKVX NSCLC)?
Answer: > 66.1 µM

Question: And the TGI (EKVX NSCLC)?
Answer: > 100 µM

Question: What about the GI50 (RXF 393 renal) of the same compound?
Answer: > 65.7 µM

Question: What about the TGI (RXF 393 renal) of the same compound?
Answer: > 100 µM

Question: What about the GI50 (UACC-257 melanoma) of the same compound?
Answer: > 91.9 µM

Question: What about the TGI (UACC-257 melanoma) of the same compound?
Answer: > 100 µM

Question: And the GI50 (HCT-15 colon)?
Answer: > 74.9 µM

Question: And the TGI (HCT-15 colon)?
Answer: > 100 µM

Question: And the GI50 (SK-OV-3 ovarian)?
Answer: > 70.1 µM

Question: What about the TGI (SK-OV-3 ovarian) of the same compound?
Answer: > 100 µM

Question: And the GI50 (SF-268 CNS)?
Answer: > 57.1 µM

Question: And the TGI (SF-268 CNS)?
Answer: > 100 µM

Question: And the GI50 (SN12C renal)?
Answer: > 51.5 µM

Question: And the TGI (SN12C renal)?
Answer: > 100 µM

Question: What about the GI50 (IGROV1 ovarian) of the same compound?
Answer: > 100 µM

Question: And the TGI (IGROV1 ovarian)?
Answer: > 100 µM

Question: And the GI50 (NCI-H522 lung)?
Answer: > 100 µM

Question: What about the TGI (NCI-H522 lung) of the same compound?
Answer: > 100 µM

Question: And the GI50 (K-562 leukemia)?
Answer: 68.9 µM

Question: And the TGI (K-562 leukemia)?
Answer: > 100 µM

Question: What about the GI50 (LOX IMVI melanoma) of the same compound?
Answer: 57 µM

Question: What about the TGI (LOX IMVI melanoma) of the same compound?
Answer: > 100 µM

Question: And the GI50 (NCI/ADR-RES ovarian)?
Answer: > 100 µM

Question: What about the TGI (NCI/ADR-RES ovarian) of the same compound?
Answer: > 100 µM

Question: What about the GI50 (HOP-62 NSCLC) of the same compound?
Answer: > 100 µM

Question: What about the TGI (HOP-62 NSCLC) of the same compound?
Answer: > 100 µM

Question: What about the GI50 (UO-31 renal) of the same compound?
Answer: > 100 µM

Question: And the TGI (UO-31 renal)?
Answer: > 100 µM

Question: What about the GI50 (OVCAR-8 ovarian) of the same compound?
Answer: > 100 µM

Question: What about the TGI (OVCAR-8 ovarian) of the same compound?
Answer: > 100 µM

Question: What about the GI50 (MALME-3M melanoma) of the same compound?
Answer: > 59.7 µM

Question: What about the TGI (MALME-3M melanoma) of the same compound?
Answer: > 100 µM

Question: What about the GI50 (SK-MEL-28 melanoma) of the same compound?
Answer: > 82.4 µM

Question: And the TGI (SK-MEL-28 melanoma)?
Answer: > 100 µM

Question: And the GI50 (CAKI-1 renal)?
Answer: > 100 µM

Question: And the TGI (CAKI-1 renal)?
Answer: > 100 µM

Question: What about the GI50 (OVCAR-5 ovarian) of the same compound?
Answer: > 74.6 µM

Question: What about the TGI (OVCAR-5 ovarian) of the same compound?
Answer: > 100 µM

Question: What about the GI50 (U251 CNS) of the same compound?
Answer: > 81.1 µM

Question: And the TGI (U251 CNS)?
Answer: > 100 µM

Question: What about the GI50 (HL-60(TB) leukemia) of the same compound?
Answer: > 100 µM

Question: And the TGI (HL-60(TB) leukemia)?
Answer: > 100 µM

Question: And the GI50 (UACC-62 melanoma)?
Answer: 42.3 µM

Question: What about the TGI (UACC-62 melanoma) of the same compound?
Answer: > 100 µM

Question: What about the GI50 (HS 578T breast) of the same compound?
Answer: 30.9 µM

Question: What about the TGI (HS 578T breast) of the same compound?
Answer: > 100 µM

Question: And the GI50 (COLO 205 colon)?
Answer: > 86.6 µM

Question: What about the TGI (COLO 205 colon) of the same compound?
Answer: > 100 µM

Question: What about the GI50 (ACHN renal) of the same compound?
Answer: > 100 µM

Question: What about the TGI (ACHN renal) of the same compound?
Answer: > 100 µM

Question: What about the GI50 (PC-3 prostate) of the same compound?
Answer: > 87.7 µM

Question: What about the TGI (PC-3 prostate) of the same compound?
Answer: > 100 µM
